# “Also recorded” adds a separate entry of the source.
# How the values were obtained:
# Format in all cases: cell-based, human
# CD95 [1] = assay: CD95 aggregation by size exclusion chromatography; details: Jurkat cells; BAPTA-AM pre-treatment
# Text: In order to validate that CD95 underwent aggregation upon down-modulation of intracellular calcium, the formation the micrometer-sized CD95-containing domain was investigated by using size exclusion chromatography (FIG. 10). Decrease in intracellular calcium allowed the redistribution of a significant proportion of CD95 into heavy weighted fractions (FIG. 10), which confirmed that the slight down-modulation of [Ca^2+]i led to the formation of cluster of CD95. It was also observed that calcium-driven CD95-CAP occurred independently of de novo expression of CD95L since no trace of the membrane-bound ligand was detected. […] Since CD95 clustering is an early step of the CD95 molecular ordering, the impact of intracellular calcium on the initial events of CD95 pathway and on cell death was further assessed.
# CD95 [2] = assay: CD95 expression; details: 2-APB or BAPTA-AM regimens
# Experimental: This technique allowed detecting the presence of a protein on the cell surface. All the steps took place at 4° C. so as to reduce membrane proteins endocytosis and loss of cell labelling.
# Plasma membrane of the cells (10^6 cells per marking) was saturated for 5 minutes in 1 ml PBS containing 1% (w/v) BSA (bovine serum albumin) and 1% (v/v) foetal veal serum (FVS). This solution was used for washings and antibody dilutions.
# The cells were incubated for 30 minutes with 50 μl primary antibody (anti-Fas DX2 clone at 10 μg/ml), washed twice with the PBS/BSA/FCS solution, then incubated with 50 μl of a secondary antibody coupled with phycoerythrin for 30 minutes. After 3 washings, the cells were re-suspended in 200 μl PBS/BSA/SVF and analysed immediately by flow cytometry (FACsCalibur, BD Biosciences). The fluorescence intensity was analysed with the Cellquest software.
# [3] = test system: DISC macro-complex (Fas/FADD/Caspase-8); assay: DISC formation: Fas immunoprecipitation and Western blot; details: vs untreated cells
# Experimental: Cells were incubated with 1 μg/ml APO1-3 for 30 minutes at 4° C. After washing, cells were incubated for 15 minutes at 4° C. (0 minutes) or at 37° C. (15 minutes) and then lysed for 30 minutes at 4° C. in a lysis buffer (25 mM HEPES pH 7.4, 1% Triton X-100, 150 mM NaCl, 2 mM EDTA, a cocktail including protease inhibitors (Sigma)). The lysed cells were then centrifugated for 15 minutes at 15000 rpm in order to eliminate genomic DNA, and the supernatant was kept. The sepharose beads which were coupled with protein A were added to the lysate and the mixture was incubated for 2 hours. The beads were recovered, washed intensively and the immunoprecipitated proteins were re-suspended in a denaturing and reducing buffer (0.01M Tris-HCl pH6.8, 10% glycerol (v/v), 85 mM sodium dodecyl sulfate (SDS), 5% (v/v) […] and 0.005% (w/v) bromophenol blue) then heated at 100° C. for 5 minutes. The samples were deposited in an acrylamide/Bisacrylamide gel and separated by electrophoresis. The proteins were transferred from the gel into a nitrocellulose membrane using a semi-dry medium transfer technique for 2 hours at constant amperage (0.8 mA/cm^2). […] After transfer, the nitrocellulose membrane was saturated with proteins for 30 minutes with a TBST buffer (50 mM Tris pH=8, 0.15M sodium chloride, 0.05% (v/v) Tween-20) containing 5% (w/v) skimmed powdered milk (TBSTM). After washing with TBST, the membrane was incubated for 2 hours with the primary antibody in TBST. The membrane was washed intensively then incubated for one hour with TBST containing the secondary peroxidase-coupled antibody. […] This solution contained a substrate metabolised by peroxidase to yield a luminescent compound, which allowed marking a radiographic film (Amersham).
# [4] = test system: intracellular calcium concentration; assay: Intracellular Ca2+ concentration, indo-1 (micro)spectrofluorimetry
# Experimental: Principle: [Ca^2+]i was measured by microspectrofluorimetry using a calcium sensitive fluorescent probe: indo-1. When excited at 360 nm wavelength, the so-called monoexcitation/double emission indo-1 probe transmitted back in a spectrum ranging from 400 to 500 nm. Binding of Ca^2+ to indo-1 caused displacement of the emission spectrum after excitation. The emission maximum in the unbound form was located around 480 nm. The emission of the complexed form was around 405 nm. An increase of calcium concentration thus caused the emission to increase to 405 nm and the emission to decrease to 480 nm. The ratio of both fluorescence intensities allowed to be independent from the quantity of the probe and to determine the [Ca^2+]i according to the Grynkiewicz equation:
# [Ca^2+]i(nM)=Kd.β×(R−Rmin)/(Rmax−R)
# Rmax, Rmin and Kd. β were determined by combining electrophysiology (patch clamp) and spectrofluorimetry. Rmax was determined by placing in the patch pipette a medium containing 10 mM CaCl2. Rmin was obtained by placing as an intrapipette solution a calcium-deprived medium (10 mM EGTA).
# The cells were then rinsed with HBSS (800 rpm centrifugation for 2 minutes) and placed in an observation chamber on a glass coverslip. […] The excitation light is supplied by a Xenon lamp (100W). […] The substances to be tested were applied using a glass pipette positioned at some twenty μm of the studied cell and connected to a pneumatic system.
# The principle as well as the loading of the cells were identical with the measurement on single cells. In such a case, approx. 40,000 cells were placed in a quartz tub under constant agitation. The tub was then placed in a Hitachi spectrofluorimeter whereof the excitation monochromator was set to 350 nm. […] The signals were transmitted to a computer via an analogue/digital converter. So as to be able to apply the Grynkiewicz equation (see above) and translate the fluorescence ratios measured in calcium values, the calibration parameters were entered into the software. The substances to be tested were applied directly in the tube under constant agitation.
# [5] = test system: Raji, BL2, Jurkat cell lines and activated PBL; assay: Apoptosis % by loss of mitochondrial membrane potential
# Experimental: 2 to 4.10^4 cells were deposited in wells in a 96-well plate. The cells were incubated, in the presence of the different reactants for the times specified, at 37° C. in a final volume of 100 or 200 μl. The apoptotic cells were identified in the cellular populations by measuring mitochondrial de-polarisation. […] These potentiometric probes allowed monitoring the variations of the mitochondrial membrane potential. […] Following cell treatment with the different drugs, the former were placed in the presence of TMRM or DIOC6 at 10 nM concentration, for 20 minutes at 37° C. then the fluorescence of the cells was analysed by flow cytometry.
structure (smiles),measurement,setting,value
"CC(=O)OCOC(=O)CN(CC(=O)OCOC(C)=O)c1ccccc1OCCOc1ccccc1N(CC(=O)OCOC(C)=O)CC(=O)OCOC(C)=O [BAPTA-AM, 1,2-bis-(o-Aminophenoxy)ethane-N,N,N′,N′-tetraacetic tetra-(acetoxymethyl) acid Ester]",CD95 aggregation,CD95 [1],formation of the CD95 aggregation
same,expression of CD95,CD95 [2],did not modify the expression of CD95
same,DISC formation / FADD recruitment upon CD95 stimulation,"[3]; H9, Jurkat, activated PBTs, non-cytotoxic concentrations",dramatically improved the DISC formation; also recorded: induction of DISC formation
same,formation of the DISC macro-complex,"[3]; H9 cells, BAPTA-AM 1-10 μM or ionomycine 1 μM pre-incubation, then anti-Fas APO1-3 1 μg/ml 15 min 37° C.",enhanced formation of the DISC macro-complex
same,increase in intracellular calcium in response to extracellular 3 mM Ca2+,"[4]; Raji, BAPTA-AM 10 μM pretreatment",smaller increase in the intracellular calcium concentration
same,CD95-mediated peak of calcium,"[4]; non-cytotoxic concentrations, CD95 stimulation",totally abrogated the CD95-mediated peak of calcium
same,basal [Ca2+]i,[4]; pre-incubation of cells,induced a faint decrease in the basal [Ca^2+]i
same,potentiation of apoptotic signals mediated by edelfosine or Rituximab,"[5]; B lymphoma cell lines, BAPTA-AM 1 μM pre-incubation",allowed potentiating apoptotic signals
same,apoptotic signal with Rituximab associated with BAPTA-AM,"[5]; BL2 cell line, deprived of Fas receptor, Rituximab resistant",no increase in the apoptotic signal has been observed
